# Target: T1, Full length human CDC7 protein co-expressed with DBF4 (Homo sapiens, UniProt O00311)
# T1 construct: Full length human CDC7 protein co-expressed with DBF4; purchased SignalChem (China)
# Test: CDC7 kinase biochemical assay (ADP-Glo, PDKtide substrate)
# Conditions: 0.1 nM CDC7/DBF4, 1 uM ATP, 10 uM PDKtide, 4 h; read-out: CDC7 ADP-Glo PDKtide IC50
# Method: CDC7 Kinase Biochemical Assay Protocol:
# Full length human CDC7 protein co-expressed with DBF4 was purchased from SignalChem (China). CDC7 kinase activity was determined with PDKtide (SignalChem) as a substrate and by measuring ADP production using the ADP-Glo™ Kinase Assay kit (Promega) following the manufacturers instructions. The kinase reaction was performed using the following conditions: Buffer: 40 mM Tris pH 7.5, 20 mM MgCl2, 0.1 mg/ml BSA and 50 uM DTT. Final reaction mix contained 0.1 nM CDC7/DBF4, 1 uM ATP and 10 uM PDKtide. The kinase reaction time was 4 h. The ADP-Glo signal was measured using an EnVision plate reader (PerkinELmer).
# Percent inhibition of CDC7 kinase activity was calculated based on the following formula: […]
# SSample: the signal of compounds SHigh ctrl: the signal of high control (DMSO) SLow Ctrl: the signal of low control (positive control CDC7 inhibitor)
# T1 sequence (O00311 whole entry): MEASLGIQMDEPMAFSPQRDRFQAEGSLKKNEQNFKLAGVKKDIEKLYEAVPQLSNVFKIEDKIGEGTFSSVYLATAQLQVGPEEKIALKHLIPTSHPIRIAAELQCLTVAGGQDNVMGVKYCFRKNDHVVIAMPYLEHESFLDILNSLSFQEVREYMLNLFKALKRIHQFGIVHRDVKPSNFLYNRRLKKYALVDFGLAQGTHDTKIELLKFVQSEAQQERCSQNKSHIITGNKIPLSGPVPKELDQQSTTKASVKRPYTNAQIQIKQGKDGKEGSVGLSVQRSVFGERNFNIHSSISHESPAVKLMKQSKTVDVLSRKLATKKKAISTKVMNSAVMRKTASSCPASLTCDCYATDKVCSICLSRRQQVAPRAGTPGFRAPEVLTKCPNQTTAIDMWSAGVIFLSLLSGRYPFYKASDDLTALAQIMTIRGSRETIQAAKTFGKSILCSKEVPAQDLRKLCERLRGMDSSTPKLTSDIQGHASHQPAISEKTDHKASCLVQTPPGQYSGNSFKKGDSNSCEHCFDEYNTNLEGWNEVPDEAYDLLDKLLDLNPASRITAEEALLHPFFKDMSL
# T1 sequence (Q9UBU7 whole entry partner): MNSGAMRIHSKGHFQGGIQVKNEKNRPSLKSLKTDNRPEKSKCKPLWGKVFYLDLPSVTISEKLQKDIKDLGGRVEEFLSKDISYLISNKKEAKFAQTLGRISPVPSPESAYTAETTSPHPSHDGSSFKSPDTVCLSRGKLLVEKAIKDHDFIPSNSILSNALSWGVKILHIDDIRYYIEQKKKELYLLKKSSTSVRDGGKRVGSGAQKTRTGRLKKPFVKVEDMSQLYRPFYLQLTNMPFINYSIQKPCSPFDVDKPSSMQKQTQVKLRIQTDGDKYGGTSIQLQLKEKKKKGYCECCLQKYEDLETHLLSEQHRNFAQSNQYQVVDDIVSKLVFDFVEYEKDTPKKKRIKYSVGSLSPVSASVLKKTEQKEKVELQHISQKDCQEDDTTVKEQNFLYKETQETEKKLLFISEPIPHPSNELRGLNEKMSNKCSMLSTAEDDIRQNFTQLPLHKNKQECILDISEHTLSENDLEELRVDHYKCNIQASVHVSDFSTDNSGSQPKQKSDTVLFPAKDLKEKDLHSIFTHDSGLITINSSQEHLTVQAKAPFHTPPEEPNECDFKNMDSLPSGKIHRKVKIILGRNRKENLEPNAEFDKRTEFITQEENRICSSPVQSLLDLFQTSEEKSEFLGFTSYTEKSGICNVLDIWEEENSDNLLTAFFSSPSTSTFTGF
row,Structure (SMILES),IC50
1,"O=C1NC(C2CC(F)(F)C2)CN2CC(F)Cc3c(-c4cn[nH]c4)sc1c32 (single isomer, unassigned) [Compound 127, 7-(3,3-difluorocyclobutyl)-4-fluoro-2-(1H-pyrazol-4-yl)-4,5,7,8-tetrahydro-3H-1-thia-5a,8-diazabenzo[cd]azulen-9(6H)-one]",< 1 nM
2,"O=C1NC(C2CC(F)(F)C2)CN2CC(F)Cc3c(-c4cn[nH]c4)sc1c32 (single isomer, unassigned) [Compound 128, 7-(3,3-difluorocyclobutyl)-4-fluoro-2-(1H-pyrazol-4-yl)-4,5,7,8-tetrahydro-3H-1-thia-5a,8-diazabenzo[cd]azulen-9(6H)-one]",1 to 10 nM
3,"O=C1NC(C2CC(F)(F)C2)CN2CC(F)Cc3c(-c4cn[nH]c4)sc1c32 (single isomer, unassigned) [Compound 129, 7-(3,3-difluorocyclobutyl)-4-fluoro-2-(1H-pyrazol-4-yl)-4,5,7,8-tetrahydro-3H-1-thia-5a,8-diazabenzo[cd]azulen-9(6H)-one]",< 1 nM
4,"O=C1NC(C2CC(F)(F)C2)CN2CC(F)Cc3c(-c4cn[nH]c4)sc1c32 (single isomer, unassigned) [Compound 130, 7-(3,3-difluorocyclobutyl)-4-fluoro-2-(1H-pyrazol-4-yl)-4,5,7,8-tetrahydro-3H-1-thia-5a,8-diazabenzo[cd]azulen-9(6H)-one]",< 1 nM
5,"O=C1N[C@H](C2CCCCO2)CN2CC(F)(F)Cc3c(-c4cn[nH]c4)sc1c32 (single isomer, unassigned) [Compound 137]",> 10 nM
6,"O=C1N[C@H](C2CCCCO2)CN2CC(F)(F)Cc3c(-c4cn[nH]c4)sc1c32 (single isomer, unassigned) [Compound 138]",1 to 10 nM
7,"O=C1N[C@@H](C2CCCCO2)CN2CC(F)(F)Cc3c(-c4cn[nH]c4)sc1c32 (single isomer, unassigned) [Compound 139]",< 1 nM
8,"O=C1N[C@@H]([C@@H]2CCCCO2)CN2CC(F)(F)Cc3c(-c4cn[nH]c4)sc1c32 (single isomer, unassigned) [Compound 140]",< 1 nM
9,"CC1(C)NC(=O)c2sc(-c3ccncn3)c3c2N1CCCN3 [Compound 1, 5,5-dimethyl-1-(pyrimidin-4-yl)-4,5,6,7,8,9-hexahydro-3H-2-thia-4,5a,9-triazabenzo[cd]azulen-3-one]",< 1 nM
10,"CC1(C)NC(=O)c2sc(-c3ccncc3)c3c2N1CCO3 [Compound 2, 6,6-dimethyl-2-(pyridin-4-yl)-4,5,6,7-tetrahydro-8H-3-oxa-1-thia-5a,7-diazaacenaphthylen-8-one]",< 1 nM
11,"CC1(C)NC(=O)c2sc(-c3ccncc3)c3c2N1CCCO3 [Compound 3, 5,5-Dimethyl-1-(pyridin-4-yl)-4,5,7,8-tetrahydro-3H,6H-9-oxa-2-thia-4,5a-diazabenzo[cd]azulen-3-one]",< 1 nM
12,"CC1(C)NC(=O)c2sc(-c3c[nH]c4ncncc34)c3c2N1CCO3 [Compound 4, 6,6-dimethyl-2-(7H-pyrrolo[2,3-d]pyrimidin-5-yl)-4,5,6,7-tetrahydro-8H-3-oxa-1-thia-5a,7-diazaacenaphthylen-8-one]",1 to 10 nM
13,"CC1(C)NC(=O)c2sc(-c3ccncn3)c3c2N1CCO3 [Compound 5, 6,6-Dimethyl-2-(pyrimidin-4-yl)-4,5,6,7-tetrahydro-8H-3-oxa-1-thia-5a,7-diazaacenaphthylen-8-one]",> 10 nM
14,"Cc1[nH]ncc1-c1sc2c3c1OCCN3C(C)(C)NC2=O [Compound 6, 6,6-dimethyl-2-(5-methyl-1H-pyrazol-4-yl)-4,5,6,7-tetrahydro-8H-3-oxa-1-thia-5a,7-diazaacenaphthylen-8-one]",1 to 10 nM
15,"CC1(C)NC(=O)c2sc(-c3ccnc4ccoc34)c3c2N1CCO3 [Compound 7, 2-(furo[3,2-b]pyridin-7-yl)-6,6-dimethyl-4,5,6,7-tetrahydro-8H-3-oxa-1-thia-5a,7-diazaacenaphthylen-8-one]",> 10 nM
16,"CC1(C)NC(=O)c2sc(-c3ccnc4[nH]ncc34)c3c2N1CCO3 [Compound 8, 6,6-dimethyl-2-(1H-pyrazolo[3,4-b]pyridin-4-yl)-4,5,6,7-tetrahydro-8H-3-oxa-1-thia-5a,7-diazaacenaphthylen-8-one]",1 to 10 nM
17,"CC1(C)NC(=O)c2sc(-c3c[nH]c4ncccc34)c3c2N1CCO3 [Compound 9, 6,6-dimethyl-2-(1H-pyrrolo[2,3-b]pyridin-3-yl)-4,5,6,7-tetrahydro-8H-3-oxa-1-thia-5a,7-diazaacenaphthylen-8-one]",1 to 10 nM

row,Structure (SMILES),IC50
1,"CC1(C)NC(=O)c2sc(-c3c[nH]c4ncc(Cl)cc34)c3c2N1CCO3 [Compound 10, 2-(5-chloro-1H-pyrrolo[2,3-b]pyridin-3-yl)-6,6-dimethyl-4,5,6,7-tetrahydro-8H-3-oxa-1-thia-5a,7-diazaacenaphthylen-8-one]",1 to 10 nM
2,"CC1(C)NC(=O)c2sc(-c3ccnc(N)n3)c3c2N1CCO3 [Compound 11, 2-(2-aminopyrimidin-4-yl)-6,6-dimethyl-4,5,6,7-tetrahydro-8H-3-oxa-1-thia-5a,7-diazaacenaphthylen-8-one]",1 to 10 nM
3,"CC1(C)NC(=O)c2sc(-c3cn[nH]c3)c3c2N1CCO3 [Compound 12, 6,6-dimethyl-2-(1H-pyrazol-4-yl)-4,5,6,7-tetrahydro-8H-3-oxa-1-thia-5a,7-diazaacenaphthylen-8-one]",< 1 nM
4,"CC1(C)NC(=O)c2sc(-c3ccnc(N)c3)c3c2N1CCO3 [Compound 13, 2-(2-aminopyridin-4-yl)-6,6-dimethyl-4,5,6,7-tetrahydro-8H-3-oxa-1-thia-5a,7-diazaacenaphthylen-8-one]",1 to 10 nM
5,"CC1(C)NC(=O)c2sc(-c3ccnc4[nH]ccc34)c3c2N1CCO3 [Compound 14, 6,6-dimethyl-2-(1H-pyrrolo[2,3-b]pyridin-4-yl)-4,5,6,7-tetrahydro-8H-3-oxa-1-thia-5a,7-diazaacenaphthylen-8-one]",1 to 10 nM
6,"C[C@H]1CN2CCOc3c(-c4ccncc4)sc(c32)C(=O)N1 [Compound 15, (S)-7-methyl-2-(pyridin-4-yl)-4,5,7,8-tetrahydro-3-oxa-1-thia-5a,8-diazabenzo[cd]azulen-9(6H)-one]",< 1 nM
7,Cc1n[nH]cc1-c1sc2c3c1OCCN3C[C@H](C)NC2=O [Compound 17],1 to 10 nM
8,"C[C@H]1CN2CCOc3c(-c4ccnc5[nH]ccc45)sc(c32)C(=O)N1 [Compound 18, (S)-7-methyl-2-(1H-pyrrolo[2,3-b]pyridin-4-yl)-4,5,7,8-tetrahydro-3-oxa-1-thia-5a,8-diazabenzo[cd]azulen-9(6H)-one]",< 1 nM
9,"C[C@H]1CN2C(=O)COc3c(-c4cn[nH]c4)sc(c32)C(=O)N1 [Compound 20, (S)-7-methyl-2-(1H-pyrazol-4-yl)-7,8-dihydro-3-oxa-1-thia-5a,8-diazabenzo[cd]azulene-5,9(4H,6H)-dione]",< 1 nM
10,"C[C@@H]1CNC(=O)c2sc(-c3ccncc3)c3c2N1C(=O)CO3 [Compound 22, (R)-6-methyl-2-(pyridin-4-yl)-7,8-dihydro-3-oxa-1-thia-5a,8-diazabenzo[cd]azulene-5,9(4H,6H)-dione]",1 to 10 nM
11,"C[C@H]1CNC(=O)c2sc(-c3ccncc3)c3c2N1CCO3 [Compound 24, (S)-6-methyl-2-(pyridin-4-yl)-4,5,7,8-tetrahydro-3-oxa-1-thia-5a,8-diazabenzo[cd]azulen-9(6H)-one]",1 to 10 nM
12,"C[C@H]1CNC(=O)c2sc(-c3cn[nH]c3)c3c2N1CCO3 [Compound 25, (S)-6-methyl-2-(1H-pyrazol-4-yl)-4,5,7,8-tetrahydro-3-oxa-1-thia-5a,8-diazabenzo[cd]azulen-9(6H)-one]",< 1 nM
13,"O=C1NCC(C2CCOCC2)N2CCOc3c(-c4cn[nH]c4)sc1c32 (centres unmarked) [Compound 26, 2-(1H-pyrazol-4-yl)-6-(tetrahydro-2H-pyran-4-yl)-4,5,7,8-tetrahydro-3-oxa-1-thia-5a,8-diazabenzo[cd]azulen-9(6H)-one]",< 1 nM
14,"C[C@H]1CN2C(=O)CCc3c(-c4cn[nH]c4)sc(c32)C(=O)N1 [Compound 29, (S)-7-methyl-2-(1H-pyrazol-4-yl)-3,4,7,8-tetrahydro-5H-1-thia-5a,8-diazabenzo[cd]azulene-5,9(6H)-dione]",1 to 10 nM
15,"C[C@H]1CN2CCCc3c(-c4ccncc4)sc(c32)C(=O)N1 [Compound 31, (S)-7-methyl-2-(pyridin-4-yl)-4,5,7,8-tetrahydro-3H-1-thia-5a,8-diazabenzo[cd]azulen-9(6H)-one]",1 to 10 nM
16,"O=C1NC[C@@H](CO)N2CCOc3c(-c4cn[nH]c4)sc1c32 [Compound 34, (S)-6-(hydroxymethyl)-2-(1H-pyrazol-4-yl)-4,5,7,8-tetrahydro-3-oxa-1-thia-5a,8-diazabenzo[cd]azulen-9(6H)-one]",< 1 nM

# Same assay, conditions: CDC7 ADP-Glo PDKtide IC50, 0.1 nM CDC7/DBF4, 1 uM ATP, 10 uM PDKtide, 4 h
row,Structure (SMILES),IC50
1,"O=C1N[C@H](C2CCC2)CN2C(=O)COc3c(-c4cn[nH]c4)sc1c32 [Compound 21, (R)-7-cyclobutyl-2-(1H-pyrazol-4-yl)-7,8-dihydro-3-oxa-1-thia-5a,8-diazabenzo[cd]azulene-5,9(4H,6H)-dione]",1 to 10 nM
2,"O=C1N[C@@H](C2CCC2)C(=O)N2CCOc3c(-c4cn[nH]c4)sc1c32 [Compound 23, (S)-7-cyclobutyl-2-(1H-pyrazol-4-yl)-4,5,7,8-tetrahydro-3-oxa-1-thia-5a,8-diazabenzo[cd] azulene-6,9-dione]",> 10 nM
